According to ChEMBL document CHEMBL5120815, “Synthesis of novel dual target inhibitors of PARP and EGFR and their antitumor activities in triple negative breast cancers” (Bioorg Med Chem, 2022):
Calls of active or inactive are those of the source. The rule behind the calls is not given here.

Key:
[1] = tested on: MDA-MB-468; test: Cytotoxicity against human MDA-MB-468 cells assessed as inhibition of cell growth incubated for 48 hrs by MTT assay; format: functional, cell-based; conditions: MDA-MB-468, 48 h
[2] = tested on: MCF7; test: Cytotoxicity against human MCF7 cells harbouring wild type BRCA1/2 assessed as inhibition of cell growth incubated for 48 hrs by MTT assay; format: functional, cell-based; conditions: MCF7, 48 h
[3] = tested on: MDA-MB-231; test: Cytotoxicity against human MDA-MB-231 cells assessed as inhibition of cell growth incubated for 48 hrs by MTT assay; format: functional, cell-based; conditions: MDA-MB-231, 48 h
[4] = tested on: MCF7; test: Potentiation of adriamycin-induced cytotoxicity in human MCF7 cells harbouring wild type BRCA1/2 assessed as inhibition of cell growth at 25 uM incubated for 48 hrs in presence of 0.8 uM adriamycin by MTT assay relative to control; format: functional
[5] = tested on: MCF7; test: Cytotoxicity against human MCF7 cells harbouring wild type BRCA1/2 assessed as inhibition of cell growth at 25 uM incubated for 48 hrs by MTT assay relative to control; format: functional
[6] = tested on: HCC1937; test: Cytotoxicity against human HCC1937 cells assessed as inhibition of cell growth incubated for 48 hrs by MTT assay; format: functional, cell-based; conditions: HCC1937, 48 h
[7] = tested on: MCF7; test: Synergistic cytotoxicity against human MCF7 cells harbouring wild type BRCA1/2 assessed as combination index at 25 uM incubated for 48 hrs in presence of 0.8 uM adriamycin by MTT assay; format: functional
[8] = tested on: MX1; test: Cytotoxicity against human MX1 cells harbouring BRCA1 mutant assessed as inhibition of cell growth incubated for 48 hrs by MTT assay; format: functional, cell-based; conditions: MX1, 48 h
[9] = tested on: SK-BR-3; test: Cytotoxicity against human SK-BR-3 cells harbouring wild type BRCA1/2 assessed as inhibition of cell growth incubated for 48 hrs by MTT assay; format: functional, cell-based; conditions: SK-BR-3, 48 h
[10] = tested on: MCF7; test: Potentiation of adriamycin-induced cytotoxicity in human MCF7 cells harbouring wild type BRCA1/2 assessed as inhibition of cell growth at 10 uM incubated for 48 hrs in presence of 0.8 uM adriamycin by MTT assay relative to control; format: functional
[11] = tested on: MCF7; test: Cytotoxicity against human MCF7 cells harbouring wild type BRCA1/2 assessed as inhibition of cell growth at 10 uM incubated for 48 hrs by MTT assay relative to control; format: functional
[12] = tested on: MCF7; test: Synergistic cytotoxicity against human MCF7 cells harbouring wild type BRCA1/2 assessed as combination index at 10 uM incubated for 48 hrs in presence of 0.8 uM adriamycin by MTT assay; format: functional
[13] = tested on: MCF7; test: Potentiation of adriamycin-induced cytotoxicity in human MCF7 cells harbouring wild type BRCA1/2 assessed as inhibition of cell growth at 17.5 uM incubated for 48 hrs in presence of 0.8 uM adriamycin by MTT assay relative to control; format: functional
[14] = tested on: MCF7; test: Cytotoxicity against human MCF7 cells harbouring wild type BRCA1/2 assessed as inhibition of cell growth at 17.5 uM incubated for 48 hrs by MTT assay relative to control; format: functional
[15] = tested on: MCF7; test: Synergistic cytotoxicity against human MCF7 cells harbouring wild type BRCA1/2 assessed as combination index at 17.5 uM incubated for 48 hrs in presence of 0.8 uM adriamycin by MTT assay; format: functional
[16] = target: Poly [ADP-ribose] polymerase 1 (Homo sapiens) (UniProt P09874); test: Inhibition of PARP-1 in human MCF7 cells assessed as inhibition of PARylation by measuring reduction in PARP protein expression at 1 uM pretreated with adriamycin followed by compound addition and measured after 48 hrs by Western bot analysis; format: cell-based
[17] = target: Epidermal growth factor receptor (Homo sapiens) (UniProt P00533); test: Inhibition of human EGFR in human HCC1937 cells assessed as reduction in EGFR level at 10 uM incubated for 48 hrs by Western blot analysis; format: cell-based
[18] = target: Epidermal growth factor receptor (Homo sapiens) (UniProt P00533); test: Inhibition of human EGFR in human HCC1937 cells assessed as reduction in phosphorylated EGFR level at 10 uM incubated for 48 hrs by Western blot analysis; format: cell-based
[19] = target: Poly [ADP-ribose] polymerase 1 (Homo sapiens) (UniProt P09874); test: Inhibition of PARP-1 (unknown origin) at 0.1 uM preincubated for 10 mins followed by PARP cocktail addition and measured after 60 mins by colorimetric assay relative to control; conditions: time 70.0 min

Sequence of Poly [ADP-ribose] polymerase 1 (Homo sapiens) (P09874 whole entry): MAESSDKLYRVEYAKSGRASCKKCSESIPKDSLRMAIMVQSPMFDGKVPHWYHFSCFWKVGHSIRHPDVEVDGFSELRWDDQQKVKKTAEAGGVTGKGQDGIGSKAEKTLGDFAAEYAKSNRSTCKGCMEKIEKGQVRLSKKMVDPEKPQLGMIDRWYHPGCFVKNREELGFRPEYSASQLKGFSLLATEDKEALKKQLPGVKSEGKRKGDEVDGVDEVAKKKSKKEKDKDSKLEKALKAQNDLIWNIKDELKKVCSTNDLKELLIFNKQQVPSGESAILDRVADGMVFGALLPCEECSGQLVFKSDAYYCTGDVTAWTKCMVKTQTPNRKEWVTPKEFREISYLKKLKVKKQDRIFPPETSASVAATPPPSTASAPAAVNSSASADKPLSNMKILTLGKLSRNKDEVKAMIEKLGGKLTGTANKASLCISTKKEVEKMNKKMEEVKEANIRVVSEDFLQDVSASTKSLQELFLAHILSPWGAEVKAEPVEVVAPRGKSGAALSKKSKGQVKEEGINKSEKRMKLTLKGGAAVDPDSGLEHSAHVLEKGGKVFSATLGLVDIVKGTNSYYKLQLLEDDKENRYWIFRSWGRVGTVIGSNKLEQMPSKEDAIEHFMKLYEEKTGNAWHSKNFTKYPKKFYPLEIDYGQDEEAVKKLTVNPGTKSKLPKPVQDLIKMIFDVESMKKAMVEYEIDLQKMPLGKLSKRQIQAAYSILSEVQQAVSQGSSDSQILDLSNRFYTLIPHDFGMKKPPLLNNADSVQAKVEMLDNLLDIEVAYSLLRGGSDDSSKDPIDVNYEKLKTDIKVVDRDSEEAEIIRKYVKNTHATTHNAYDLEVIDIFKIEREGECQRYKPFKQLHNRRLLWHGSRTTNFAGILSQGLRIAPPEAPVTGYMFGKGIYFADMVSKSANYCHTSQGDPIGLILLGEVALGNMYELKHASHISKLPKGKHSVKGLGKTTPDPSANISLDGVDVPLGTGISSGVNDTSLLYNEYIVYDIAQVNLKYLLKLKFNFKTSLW
Sequence of Epidermal growth factor receptor (Homo sapiens) (P00533 whole entry): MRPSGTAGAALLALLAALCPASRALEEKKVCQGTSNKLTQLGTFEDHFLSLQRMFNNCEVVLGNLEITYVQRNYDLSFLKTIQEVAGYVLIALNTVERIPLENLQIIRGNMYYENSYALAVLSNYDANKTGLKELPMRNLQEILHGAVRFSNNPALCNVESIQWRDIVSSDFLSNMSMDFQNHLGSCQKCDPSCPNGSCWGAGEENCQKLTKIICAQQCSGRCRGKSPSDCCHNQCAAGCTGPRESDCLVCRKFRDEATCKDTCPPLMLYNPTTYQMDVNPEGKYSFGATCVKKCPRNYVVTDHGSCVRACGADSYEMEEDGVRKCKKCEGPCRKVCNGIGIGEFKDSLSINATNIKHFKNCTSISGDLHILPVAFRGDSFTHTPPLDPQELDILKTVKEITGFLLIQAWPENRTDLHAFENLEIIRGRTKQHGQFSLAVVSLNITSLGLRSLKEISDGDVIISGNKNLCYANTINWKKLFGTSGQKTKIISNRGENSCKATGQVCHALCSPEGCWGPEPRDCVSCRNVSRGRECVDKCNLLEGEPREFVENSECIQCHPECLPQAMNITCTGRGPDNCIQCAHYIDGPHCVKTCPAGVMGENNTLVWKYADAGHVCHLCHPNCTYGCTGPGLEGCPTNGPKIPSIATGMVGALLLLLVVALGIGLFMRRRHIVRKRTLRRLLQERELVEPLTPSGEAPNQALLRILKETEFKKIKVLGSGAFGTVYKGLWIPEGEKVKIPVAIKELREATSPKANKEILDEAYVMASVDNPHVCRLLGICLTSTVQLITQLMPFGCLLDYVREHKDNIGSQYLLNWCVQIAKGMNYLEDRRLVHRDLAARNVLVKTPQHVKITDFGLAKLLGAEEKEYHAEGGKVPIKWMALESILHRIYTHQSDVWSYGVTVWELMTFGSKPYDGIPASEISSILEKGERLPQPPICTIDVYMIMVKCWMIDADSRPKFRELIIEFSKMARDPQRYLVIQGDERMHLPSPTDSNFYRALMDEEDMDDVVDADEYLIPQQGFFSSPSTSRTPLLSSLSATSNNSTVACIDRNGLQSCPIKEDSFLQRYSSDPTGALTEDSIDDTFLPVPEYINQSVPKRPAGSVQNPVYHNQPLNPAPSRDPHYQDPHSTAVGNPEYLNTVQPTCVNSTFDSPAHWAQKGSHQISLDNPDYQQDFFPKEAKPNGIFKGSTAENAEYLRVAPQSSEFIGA

Row | inhibition [16] | inhibition [17] | inhibition [18] | inhibition [19] [%] | Compound | IC50 [1] [µM] | IC50 [2] [µM] | IC50 [3] [µM] | inhibition at 25 µM [4] [%] | inhibition at 25 µM [5] [%] | IC50 [6] [µM] | CI [7] | IC50 [8] [µM] | IC50 [9] [µM] | inhibition at 10 µM [10] [%] | inhibition at 10 µM [11] [%] | CI [12] | inhibition at 17.5 µM [13] [%] | inhibition at 17.5 µM [14] [%] | CI [15]
1 | – | – | – | – | O=C(c1cc(Cc2n[nH]c(=O)c3ccccc23)ccc1F)N1CCN(C(=O)C2CC2)CC1 [OLAPARIB] | 200 | 409 | > 200 | 27.9 | 23.5 | > 200 | 0.88 | – | – | – | – | – | – | – | –
2 | – | – | – | – | CCCN(CCC)c1ncc2c(n1)CCN(C(=O)c1cc(Cc3n[nH]c(=O)c4ccccc34)ccc1F)C2 | – | 126 | > 200 | 36.6 | 11.9 | 20.3 | 0.36 | 92.9 | > 200 | – | – | – | – | – | –
3 | – | – | – | – | CCN(CC)c1ncc2c(n1)CCN(C(=O)c1cc(Cc3n[nH]c(=O)c4ccccc34)ccc1F)C2 | – | 55.8 | > 200 | – | – | 66.8 | – | 28.4 | > 200 | 37.5 | 21.6 | 0.82 | – | – | –
4 | – | – | – | – | CN1CCN(c2ncc3c(n2)CCN(C(=O)c2cc(Cc4n[nH]c(=O)c5ccccc45)ccc2F)C3)CC1 | – | 72.8 | > 200 | 55.8 | 37.4 | 53.4 | 0.67 | 46.3 | 95.7 | – | – | – | – | – | –
5 | – | – | – | – | O=C(c1cc(Cc2n[nH]c(=O)c3ccccc23)ccc1F)N1CCc2nc(N3CCCCC3)ncc2C1 | – | 89.8 | > 200 | – | – | > 200 | – | 22.7 | 24.5 | – | – | – | 43 | 18.9 | 0.44
6 | – | – | – | – | CCCCN(CCCC)c1ncc2c(n1)CCN(C(=O)c1cc(Cc3n[nH]c(=O)c4ccccc34)ccc1F)C2 | – | 106 | > 200 | 39.6 | 27.4 | > 200 | 0.79 | 13.3 | 21.2 | – | – | – | – | – | –
7 | Active | Active | Active | 92.1 | O=C(c1cc(Cc2n[nH]c(=O)c3ccccc23)ccc1F)N1CCc2nc(N3CCOCC3)ncc2C1 | 15.6 | 199 | > 200 | 47.8 | 18.6 | 3.23 | 0.39 | 18.7 | 50 | – | – | – | – | – | –
8 | – | – | – | – | CN(C)CCN(C)c1ncc2c(n1)CCN(C(=O)c1cc(Cc3n[nH]c(=O)c4ccccc34)ccc1F)C2 | – | 122 | > 200 | 43.9 | 24.6 | > 200 | 0.86 | 66.9 | > 200 | – | – | – | – | – | –
9 | – | – | – | – | O=C(c1cc(Cc2n[nH]c(=O)c3ccccc23)ccc1F)N1CCc2nc(N3CCCC3)ncc2C1 | – | 144 | > 200 | 40.9 | 24.9 | 7.81 | 0.61 | 77 | > 200 | – | – | – | – | – | –
10 | – | – | – | – | CCN1CCN(c2ncc3c(n2)CCN(C(=O)c2cc(Cc4n[nH]c(=O)c5ccccc45)ccc2F)C3)CC1 | – | 90.1 | > 200 | 45.7 | 9.13 | 137 | 0.2 | 88.8 | > 200 | – | – | – | – | – | –
